# Several values for one entry are separate records, joined by “and”; a condition that tells them apart may be missing. Identical values can stand only once. Entries after “also recorded” stand apart in the source; their conditions may differ. Positions of bridges follow the written chain, without caps; N, C: chain ends. Chains are numbered I, II in the order given. No end group written: not given here.
# Assays:
# [1] = system: cells growing in the presence of FGF2 or Peptide A(d); assay: mitogenesis by observation of cells growing (rounding-up, cell number); format: cell-based
# From the text: FGF stimulates axonal regeneration, cell survival and mitogenesis. […] This can be seen by the failure of Peptide A(d)-treated cells to show the rounding-up characteristic of cell division, and there is not the increase in cell number observed in the presence of a mitogenic stimulation by FGF2.
# [2] = system: rat cerebellar granule neurons cultured on monolayers of NIH 3T3 fibroblasts; assay: in vitro neurite outgrowth co-culture assay (axon regeneration); format: cell-based
# Method: An example of such an assay is a co-culture assay in which neurons are cultured on top of cellular monolayers for 16 hours, before being fixed and stained with a neuron-specific antibody. The mean length of the longest neurite per cell can then be determined by fluorescence microscopy using an appropriate image analysis programme. The neurons may be, for example, (in this case cerebellar granule cell neurons, hippocampal, dorsal root ganglion, olfactory, motor or dopaminergic neurons. The cellular monolayer is, for example NIH 3T3 fibroblasts.
# Monolayers of NIH 3T3 fibroblasts were established by seeding 80,000 cells per well in Lab-Tek 8-chamber slides previously coated sequentially with poly-L-lysine and fibronectin and culturing them overnight in DMEM+10% FCS growth medium.
# Cerebellum was dissected from post-natal day 2-4 rat pups and the meninges and extraneous tissue discarded. Cerebellum was chopped into small pieces and trypsinised for 10 minutes at 37° C. Trypsin was neutralised using growth medium and the cells pelletted at 1000×g for 7 minutes. Cerebellar neurons were then resuspended in SATO growth medium containing 2% FCS, counted, and plated on top of the fibroblast monolayer at a density of 1,500 neurons per well. After 16 hours, cocultures were fixed with 4% para-formaldehyde and stained with an anti-GAP43 neuron-specific antibody, which was a gift from Dr Graham Wilkin, Imperial College Department of Biochemistry, London, but any other neuron-specific marker can be used.
# The mean neurite length of 150-200 neurons per well was determined using a fluorescent microscope and Zeiss KS300 imaging software.
# Peptides A, A(d), B, C, D, E, and F were each incorporated in the SATO medium at a range of concentrations from 0 to 200 μg/ml. Nerve growth factor (NGF) and fibroblast growth factor (FGF2) were used as controls at the same range of concentrations.
# NIH 3T3 cells [3] = assay: NIH 3T3 cell survival MTS assay in serum-free DMEM (Example 6); format: cell-based
# Method: NIH 3T3 cells are plated in 96-well plates at a density of 5,500 cells/well in 100 μl DMEM containing 0.5% FCS. After 24 hours, this medium is aspirated from the wells and replaced with 100 μl serum-free DMEM alone, or supplemented with 0.5% FCS (positive control), or a single potential survival factor, with four identical wells set up for each condition. The cells are left for up to seven days at 37 degrees and 8% CO2 before the cell survival is determined using an MTS assay. In this assay 20 μl of MTS substrate is added to each 100 μl well and the plate left in the incubator for up to four hours. Respiring cells produce a coloured reaction product that can be read using a spectrophotometer at 490 nm. […] The mean absorbance at 490 nm+/−SEM is determined for the four identically set up wells. Wells containing a known survival factor such as insulin will contain more living cells after three days than cells cultured in unsupplemented medium.
# [4] = system: Oligodendrocyte progenitors (O4 positive); format: cell-based, rat; settings: six days in culture
# From the text: Oligodendrocyte progenitors (O4 positive) are purified from postnatal day 4 rat cerebral cortex. First a trypsinised preparation of cortical cells is dissociated to single cell suspension and pre-plated to remove unwanted adherent cells such as microglia and macrophages. Oligodendrocyte progenitors express the O4 antigen, and can be purified by panning on petri-dishes coated with anti O4 antibodies. Unbound cells are removed by gentle washing, then O4 positive cells are removed by triturating them off the plate with DMEM containing 1% FCS, through a flame-polished pasteur pipette. O4 positive cells are plated on polyornithine-coated glass coverslips at a density of 500,000 cells per well in minimal growth medium containing insulin or the peptide Ac-DRVEPYSSTA[lys]2[lys] i.e. [{Ac-DRVEPYSSTA}2-K]2-K-OH, Peptide A(d), for six days, before being fixed and stained with the anti O4 antibody. Viable O4 positive cells are counted for each condition
# cerebellar neurons = assay: survival of neurons (Example 5b); format: cell-based
# MAP kinase = assay: Western blot for tyrosine phosphorylated MAP kinase in NIH 3T3 cells; format: cell-based; settings: peptide 400 μg/ml, 10 minutes
# Method: A Western blot (FIG. 2f) was obtained as follows: one million NIH 3T3 cells were serum starved for 24 hours then challenged with the following agents: DMEM, 10% FCS, 0.1 ng/ml FGF2, 1 ng/ml FGF2, 10 ng/ml FGF2, 5 μg/ml insulin, 400 μg/ml peptide 52 for 10 minutes at 37 degrees Celsius before being lysed in sample buffer and band separated by PAGE. Proteins were transferred to PVDF membranes and probed with an antibody that recognises tyrosine phosphorylated MAP kinse (upper panel).
# L6 cell line = assay: survival of L6 cell line lacking FGF receptors; format: cell-based; settings: FGF2 0.1, 1 and 10 ng/ml; Peptide A(d) 100 and 400 μg/ml
# Method: FIG. 2d compares the effects of DMEM, FCS, FGF2 at 0.1, 1 and 10 ng/ml, insulin at 0.5 and 5 μg/ml, and Peptide A(d) at 100 and 400 μg/ml.
# NIH 3T3 cells [5] = assay: NIH 3T3 survival and morphology, TRITC-conjugated phalloidin staining; format: cell-based; settings: three days; insulin 0.5 pg/ml, FGF2 0.1 ng/ml, Peptide A(d) 10 ng/ml
# NIH 3T3 fibroblasts = assay: survival of 3T3 fibroblasts in serum-free DMEM (MTS and morphologic method, Example 5a); format: cell-based
# Method: NIH 3T3 fibroblasts were plated in each well of a 96-well microtitre plate at a density of 7,000 cells per well in DMEM containing 3% FCS and left to attach overnight. The following day the growth medium was removed and replaced with 0.1 ml DMEM supplemented with FGF or Peptide A(d) or both, eight wells for each condition. The negative control was DMEM alone (maximal cell death) and the positive control was supplementation with 0.5% FCS (maximal cell survival).
# Six days later (seven days from first plating the cells), the relative number of living cells in each well was assessed by adding the mitochondrial substrate MTS, [3-(4,5-dmethylthiazol-2-yl)-5-(3-carboxymethoxyphenyl)-2-(4-sulphophenyl)-2H-tetrazolium, inner salt), for four hours before reading the optical density on a microtitre plate reader at a wavelength of 490 nm. The optical density gives a measure of the number of respiring cells present in each well at the end of the assay period.
# In addition to the biochemical assay, survival was assessed qualitatively using a morphologic method in which cells were plated in 8-chamber Lab Tek slides in DbEM alone (negative control), or DMEM supplemented with 0.5 ng/ml FGF2; 0.5% FCS (positive control), or 25-200 μg/ml Peptide A(d). After three days the cells were fixed with 4% paraformaldehyde, permeablised with methanol and stained with TRITC-conjugated falloidin to visualise the cell cytoskeleton.
# [6] = system: cells in S phase (bromodeoxyuridine incorporation into DNA); assay: bromodeoxyuridine incorporation (entry into S phase) mitogenicity assay; format: cell-based; settings: peptide, any of the concentrations tested
# Method: The mitogenicity of an agent can be determined by testing its ability to stimulate entry of cells into ‘S’ phase in readiness for cell division. This is done by standard methodology and involves incubating cells in the presence of a potential mitogen in DMEM supplemented with bromodeoxyuridine. After six hours the cells are fixed and stained with an antibody recognising bromodeoxyuridine. Cells in S phase can be distinguished by their incorporation of bromodeoxyuridine into DNA.
# NIH3T3 cells = assay: cell survival/proliferation at two plating densities; settings: 11,000 cells per well; FGF2 10 ng/ml
# From the text: FGF2 is a mitogen for a range of cells, including NIH3T3 cells.
substance,measurement,setting,value
"I: Ac-DRVEPYSSTAKK / II: Ac-DRVEPYSSTAK / III: Ac-DRVEPYSSTA / IV: Ac-DRVEPYSSTA (amide I:11-IV:C, I:12-II:C, II:11-III:C) [Peptide A(d), [{Ac-DRVEPYSSTA}2-K]2-K-OH]",mitogenesis (observation of cells),[1],does not stimulate mitogenesis
same,concentration stimulating maximal neurite outgrowth,[2],400 nM
same,stimulation of neurite outgrowth (in words),"[2]; agent included in coculture medium, 16 hour culture",bi-phasic dose-response curve
same,peptide concentration giving maximal effects in neurite outgrowth assay,"[2]; rat cerebellar neurons on 3T3 monolayer, 16 hours",1.5-2.5 μg/ml and ~0.4 μM
same,potency in stimulating neurite outgrowth relative to the monomeric peptide,[2]; versus monomeric peptide,250 times
same,survival of NIH3T3 cells in serum-free conditions (in words),NIH 3T3 cells [3]; FGF2 only at low concentrations,stimulates dose-dependent survival
same,time over which survival is stimulated in serum-free conditions,NIH 3T3 cells [3]; maximum time tested,at least seven days
same,oligodendrocyte survival (in words),[4],dose-dependent survival effect
same,survival of cerebellar neurons,cerebellar neurons,stimulate survival of cerebellar neurons
same,MAP kinase activation,MAP kinase,do not
same,MAP kinase activation,MAP kinase; listed as Ac-DRVEPYSSTA[lys]2[lys],do not
same,MAP kinase activation,MAP kinase; listed as peptide 52,did not
same,survival of L6 cell line,L6 cell line,unable to stimulate the survival
same,cell survival / morphology,NIH 3T3 cells [5],stimulate cell survival
same,cell survival with combination,NIH 3T3 fibroblasts; DMEM supplemented with Peptide A(d) together with FGF2,greater than with either agent alone
same,survival of 3T3 fibroblasts,NIH 3T3 fibroblasts; Peptide A(d) alone at 25 μg/ml,stimulated the survival of 3T3 fibroblasts to the same extent as 0.125 ng/ml FGF2
same,stimulation of survival compared with positive control 0.5% FCS,NIH 3T3 fibroblasts; all concentrations (25-200 μg/ml),at least as good as the positive control
same,mitogenicity (entry into S phase),[6],unable to stimulate entry into S phase; also recorded: not mitogenic at any of the concentrations tested
same,cell proliferation,NIH3T3 cells,does not stimulate proliferation

# Reference: US7304129B2 (Imperial Innovations Limited, priority 2000, dated 2007)
